Reference: patent publication US12590126B2, “Compounds for selective disruption of protein-protein interactions” (SyntheX, Inc., priority 2017, dated 2026)
pIC50: −log10 of the molar value. Where two headings read alike, the source gives them in different places. Blank lines part the entries; values can stand above or below the compound they belong to. Where a SMILES comes first, the peptide text is derived from it. [ ]: non-standard residue; d: D form. The star is where a group is joined. Dansyl = CN(C)c1cccc2c(S(=O)(=O)*)cccc12; 2Nal = N[C@@H](Cc1ccc2ccccc2c1)C(=O)O; dNle = CCCC[C@@H](N)C(=O)O; dAbu = CC[C@@H](N)C(=O)O; Ahx = NCCCCCC(=O)O; βAla = NCCC(=O)O; Sar = CNCC(=O)O

Assays:
SSP-25 cells = experiment: xCELLigence cell death assay in SSP-25 cells (cellular assay for RAD51 inhibition); format: cell-based; settings: concentration gradient added at 20 hour mark, only values with R^>0.85 shown
Protocol: The efficacy of the peptides described herein was assessed by their ability to cause death in SSP-25 cells, which have amplification of RAD51 and are dependent on its activity.
First, 5,000 SSP25 cells were plated, and adherence and growth was measured for 20 hours using live measurements of current impedance through the plate using the xCELLigence™ instrument. At the 20 hour mark, a concentration gradient of each compound or a PBS control was added to the SSP-25 cells, which were cultured in […] RMPI media with 10% FBS. […] Only values with confidence and R^>0.85 are shown.

fresh human RBCs = format: cell-based; settings: red cells of human, 1 h, 250
Protocol: To assess the nonspecific lytic properties of each compounds disclosed herein, each mentioned compound was tested for hemolytic properties against fresh human RBCs. Briefly, donor blood was drawn into a K2EDTA anticoagulant tube from multiple O+ donors. The blood was washed 3 times in PBS. RBCs were diluted to 2% in PBS and compounds were added at various concentrations. Samples were incubated at 37 C for 1 hr, then centrifuged at 2200 rpm for 5 min. Supernatants were measured for absorbance at 450 nm or 405 nm. The percentage hemolysis was calculated as lysis relative to 1% Triton X-100 incubation.

[1] = Mouse pharmacokinetics, IV and IP dosing; format: in vivo, mice; settings: for AUC(0-inf) / AUC(0-t) / C0 / MRT inf / clearance / Vd / half-life: in vivo
Protocol: The pharmocokinetic parameters in mice by both intravenous (IV) and intraperitoneal (IP) dosing, as well as the serum and microsome stability for each of compound 22, 23, 24, and 25 was determined. Bioanalytical methods were developed for each compound using an LC-MS/MS method with LLOQ>100 ng/ml.
For in-vivo PK work, at least 3 mice were used per timepoint. For each compound, the animals were injected either IV or IP with the compound. IV injections used 1 mg/kg, and IP injections were at 15 mg/kg. Blood was collected at the indicated timepoints and analyzed according to the bioanalytical method developed.

in vitro [2] = settings: mouse, serum
Protocol: Serum stability data was obtained using the appropriate animal serum, each incubated with the compound for up to two hours at 37 C.

in vitro [3] = settings: human, microsomes
Protocol: (§1) For HLM and MLM stability studies, each compound was incubated with the liver microsome mixture for up to an hour at 37 C in the presence of NADPH.
(§2) After the incubations, the reactions were stopped and the compounds were analyzed according to the method developed for each.

in vitro [4] = settings: mouse, microsomes
Protocol: as §1, §2

[5] = iv, 1 mg/kg, 1 mg/kg IV, read-out: Vss
[6] = iv, 1 mg/kg, 1 mg/kg IV, read-out: Vz
[7] = iv, 1 mg/kg, 1 mg/kg IV, read-out: t½ (converted)
[8] = iv, 1 mg/kg, IV (1 mg/kg), read-out: Half-life Mouse IV

- AUC Extr ([1]; 1 mg/kg IV): 28.5%
- AUC(0-inf) ([1]; 1 mg/kg IV): 490 ng·h/mL
- AUC(0-t) ([1]; 1 mg/kg IV): 347 ng·h/mL
- C0 ([1]; 1 mg/kg IV): 1480 ng/mL
- MRT inf ([1]; 1 mg/kg IV): 44.3 min
- clearance ([1]; 1 mg/kg IV): 36.1 mL/min/kg
- AUC(0-inf) ([1]; 15 mg/kg IP): 341 ng·h/mL
- MRT inf ([1]; 15 mg/kg IP): 394 min
- Vd [1, 5]: 1.56 L/kg
- Vd [1, 6]: 1.71 L/kg
- half-life [1, 7]: 33.9 min
- half-life [1, 8]: 33.8 min
- half-life (in vitro [2]): > 500 min
- half-life (in vitro [3]): 108 min
- half-life (in vitro [4]): 41.8 min
SMILES: CCCC[C@@H](NC(=O)[C@@H](CC(C)C)NC(C)=O)C(=O)N[C@H](CCCNC(=N)N)C(=O)N[C@H](C)C(=O)N[C@@H](C(=O)N[C@H](CCCNC(=N)N)C(=O)N[C@H](CC(C)C)C(=O)N[C@H](CCCNC(=N)N)C(=O)N[C@@H](C(=O)NCCC(=O)N[C@H](CC(C)C)C(=O)N[C@H](CCCNC(=N)N)C(=O)NCCCCCC(=O)N[C@H](CCCNC(=N)N)C(=O)NCCCCCC(=O)N[C@H](CCCNC(=N)N)C(=O)NCCCCCC(=O)N[C@H](CCCNC(=N)N)C(=O)NCCCCCC(=O)N[C@H](CCCNC(=N)N)C(=O)NCCCCCC(=O)N[C@H](CCCNC(=N)N)C(N)=O)C(C)C)C(C)C [Compound 23, Ac-l{d-norLeucine}ravrlrv[beta-ALA]lr(Ahx)r(Ahx)r(Ahx)r(Ahx)r(Ahx)r-NH2] (Ac-[dL][dNle][dR][dA][dV][dR][dL][dR][dV][βAla][dL][dR][Ahx][dR][Ahx][dR][Ahx][dR][Ahx][dR][Ahx][dR]-NH2)
- pIC50 (SSP-25 cells): 4.69
- % Hemolysis (250 uM) (fresh human RBCs): 3%

SMILES: CCCC[C@@H](NC(=O)[C@@H](CC(C)C)NC(C)=O)C(=O)N[C@H](CCCNC(=N)N)C(=O)N[C@H](CO)C(=O)N[C@@H](C(=O)N[C@H](CCCNC(=N)N)C(=O)N[C@H](CC(C)C)C(=O)N[C@H](CCCNC(=N)N)C(=O)N[C@@H](C(=O)NCCC(=O)N[C@H](CC(C)C)C(=O)N[C@H](CCCNC(=N)N)C(=O)N[C@H](CCCCN)C(=O)N[C@H](CCCNC(=N)N)C(=O)N[C@H](CCCNC(=N)N)C(=O)N[C@H](CCCNC(=N)N)C(=O)N[C@H](CCCNC(=N)N)C(=O)N[C@H](CCCNC(=N)N)C(=O)NCC(=O)N[C@@H](Cc1ccc2ccccc2c1)C(N)=O)C(C)C)C(C)C [Compound 17, Ac-l{d-norLeucine}rsvdrv[beta-ALA]lrkrrrrrGΦ-NH2] (Ac-[dL][dNle][dR][dS][dV][dR][dL][dR][dV][βAla][dL][dR][dK][dR][dR][dR][dR][dR]G[2Nal]-NH2)
- pIC50 (SSP-25 cells): 4.70
- % Hemolysis (250 uM) (fresh human RBCs): 32%

SMILES: CCCC[C@@H](NC(=O)[C@@H](CC(C)C)NC(C)=O)C(=O)N[C@H](CCCNC(=N)N)C(=O)N[C@H](CC)C(=O)N[C@@H](C(=O)N[C@H](CCCNC(=N)N)C(=O)N[C@H](CC(C)C)C(=O)N[C@H](CCCNC(=N)N)C(=O)N[C@@H](C(=O)NCC(=O)N[C@H](CC(C)C)C(=O)N[C@H](CCCNC(=N)N)C(=O)N[C@H](CCCCN)C(=O)N[C@H](CCCNC(=N)N)C(=O)N[C@H](CCCNC(=N)N)C(=O)N[C@H](CCCNC(=N)N)C(=O)N[C@H](CCCNC(=N)N)C(=O)N[C@H](CCCNC(=N)N)C(=O)NCC(=O)N[C@@H](Cc1ccc2ccccc2c1)C(N)=O)C(C)C)C(C)C [Compound 15, Ac-l{d-norLeucine}r(abu)vrlrvGlrkrrrrrGΦ-NH2] (Ac-[dL][dNle][dR][dAbu][dV][dR][dL][dR][dV]G[dL][dR][dK][dR][dR][dR][dR][dR]G[2Nal]-NH2)
- pIC50 (SSP-25 cells): 5.14
- % Hemolysis (250 uM) (fresh human RBCs): 49%

SMILES: CCCC[C@@H](NC(=O)[C@@H](CCCNC(=N)N)NC(=O)[C@@H](CC(C)C)NC(=O)[C@@H](CCCNC(=N)N)NC(=O)[C@@H](CCCNC(=N)N)NC(=O)[C@@H](CC)NC(=O)[C@@H](CCCNC(=N)N)NC(=O)[C@@H](CCCC)NC(=O)[C@@H](CC(C)C)NC(C)=O)C(=O)NCCC(=O)N[C@H](CC(C)C)C(=O)N[C@H](CCCNC(=N)N)C(=O)N[C@H](CCCCN)C(=O)N[C@H](CCCNC(=N)N)C(=O)N[C@H](CCCNC(=N)N)C(=O)N[C@H](CCCNC(=N)N)C(=O)N[C@H](CCCNC(=N)N)C(=O)N[C@H](CCCNC(=N)N)C(=O)NCC(=O)N[C@@H](Cc1ccc2ccccc2c1)C(N)=O [Compound 18, Ac-l{d-norLeucine}r(abu)rrlr[d-norLeucine][beta-ALA]lrkrrrrrGΦ-NH2] (Ac-[dL][dNle][dR][dAbu][dR][dR][dL][dR][dNle][βAla][dL][dR][dK][dR][dR][dR][dR][dR]G[2Nal]-NH2)
- pIC50 (SSP-25 cells): 4.75
- % Hemolysis (250 uM) (fresh human RBCs): 17%

- AUC Extr ([1]; 1 mg/kg IV): 28.8%
- Vss ([1]; 15 mg/kg IP): 2.95 L/kg
- AUC(0-inf) ([1]; 1 mg/kg IV): 528 ng·h/mL
- AUC(0-t) ([1]; 1 mg/kg IV): 375 ng·h/mL
- C0 ([1]; 1 mg/kg IV): 683 ng/mL
- MRT inf ([1]; 1 mg/kg IV): 46.7 min
- clearance ([1]; 1 mg/kg IV): 31.7 mL/min/kg
- AUC(0-inf) ([1]; 15 mg/kg IP): 1010 ng·h/mL
- MRT inf ([1]; 15 mg/kg IP): 1070 min
- half-life ([1]; ip, 15 mg/kg, 15 mg/kg IP, read-out: t½ (converted)): 113 min
- half-life ([1]; ip, 15 mg/kg, IP (15 mg/kg), read-out: Half-life Mouse IP): 113 min
- Vd [1, 5]: 1.48 L/kg
- Vd [1, 6]: 1.51 L/kg
- half-life [1, 7]: 32.9 min
- half-life [1, 8]: 33 min
- half-life (in vitro [2]): 277 min
- half-life (in vitro [3]): 56.8 min
- half-life (in vitro [4]): 116 min
SMILES: CCCC[C@@H](NC(=O)[C@@H](CC(C)C)NC(C)=O)C(=O)N[C@H](CCCNC(=N)N)C(=O)N[C@H](C)C(=O)N[C@@H](C(=O)N[C@H](CCCNC(=N)N)C(=O)N[C@H](CC(C)C)C(=O)N[C@H](CCCNC(=N)N)C(=O)N[C@@H](C(=O)NCCC(=O)N[C@H](CC(C)C)C(=O)N[C@H](CCCNC(=N)N)C(=O)NCCCCCC(=O)N[C@H](CCCNC(=N)N)C(=O)NCCCCCC(=O)N[C@H](CCCNC(=N)N)C(=O)NCCCCCC(=O)N[C@H](CCCNC(=N)N)C(=O)NCCCCCC(=O)N[C@H](CCCNC(=N)N)C(=O)NCCCCCC(=O)N[C@H](CCCNC(=N)N)C(=O)NCCCCCC(=O)N[C@H](Cc1ccc(O)cc1)C(N)=O)C(C)C)C(C)C [Compound 24, Ac-l{d-norLeucine}ravrlrv[beta-ALA]lr(Ahx)r(Ahx)r(Ahx)r(Ahx)r(Ahx)r(Ahx)y-NH2] (Ac-[dL][dNle][dR][dA][dV][dR][dL][dR][dV][βAla][dL][dR][Ahx][dR][Ahx][dR][Ahx][dR][Ahx][dR][Ahx][dR][Ahx][dY]-NH2)
- pIC50 (SSP-25 cells): 5.21
- % Hemolysis (250 uM) (fresh human RBCs): 3%

SMILES: CCCC[C@@H](NC(=O)[C@@H](CC(C)C)NC(C)=O)C(=O)N[C@H](CCCNC(=N)N)C(=O)N[C@H](CO)C(=O)N[C@@H](C(=O)N[C@H](CCCNC(=N)N)C(=O)N[C@H](CC(C)C)C(=O)N[C@H](CCCNC(=N)N)C(=O)N[C@@H](C(=O)NCC(=O)N[C@H](CC(C)C)C(=O)N[C@H](CCCNC(=N)N)C(=O)N[C@H](CCCNC(=N)N)C(=O)N[C@H](CCCNC(=N)N)C(=O)N[C@H](CCCNC(=N)N)C(=O)N[C@H](CCCNC(=N)N)C(=O)N[C@H](CCCNC(=N)N)C(=O)N(C)CC(=O)N(C)CC(=O)OC)C(C)C)C(C)C [Compound 21, Ac-l{d-norLeucine}rsvrlrvGlrrrrrr-sarcosine-sarcosine-OMe]
- pIC50 (SSP-25 cells): 4.60
- % Hemolysis (250 uM) (fresh human RBCs): 31%

SMILES: CCCC[C@@H](NC(=O)[C@@H](CC(C)C)NC(=O)CN(C)S(=O)(=O)c1cccc2c(N(C)C)cccc12)C(=O)N[C@H](CCCNC(=N)N)C(=O)N[C@H](CO)C(=O)N[C@@H](C(=O)N[C@H](CCCNC(=N)N)C(=O)N[C@H](CC(C)C)C(=O)N[C@H](CCCNC(=N)N)C(=O)N[C@@H](C(=O)NCC(=O)N[C@H](CC(C)C)C(=O)N[C@H](CCCNC(=N)N)C(=O)N[C@H](CCCCN)C(=O)N[C@H](CCCNC(=N)N)C(=O)N[C@H](CCCNC(=N)N)C(=O)N[C@H](CCCNC(=N)N)C(=O)N[C@H](CCCNC(=N)N)C(=O)N[C@H](CCCNC(=N)N)C(N)=O)C(C)C)C(C)C [Compound 19, DANSYL-Sarcosine-l{d-norLeucine}rsvrlrvGlrkrrrrr-NH2] (Dansyl-[Sar][dL][dNle][dR][dS][dV][dR][dL][dR][dV]G[dL][dR][dK][dR][dR][dR][dR][dR]-NH2)
- % Hemolysis (250 uM) (fresh human RBCs): 86%
